Laboratory results reported in ChEMBL document CHEMBL2062522, “Halogenated spirotetronates from Actinoallomurus” (J Nat Prod, 2012).
Values after ≈ are worked out from the molar mass of the structure shown. Active and inactive are the calls of the source. The calls are words filed in the database; no cut-off is given here.

What was measured:
[1] = Cytotoxicity against mouse BMDM cells after 72 hrs by MTT assay; type: cell-based
[2] = test system: Staphylococcus aureus; assay: Antibacterial activity against methicillin-sensitive Staphylococcus aureus ATCC 29213 by broth microdilution method; type: functional
[3] = test system: Staphylococcus aureus; assay: Antibacterial activity against methicillin-resistant Staphylococcus aureus isolate L1400 by broth microdilution method; type: functional
[4] = test system: Streptococcus pyogenes; assay: Antibacterial activity against Streptococcus pyogenes isolate L49 by broth microdilution method; type: functional
[5] = test system: Enterococcus faecalis; assay: Antibacterial activity against vancomycin-sensitive Enterococcus faecalis isolate L559 by broth microdilution method; type: functional
[6] = test system: Enterococcus faecalis; assay: Antibacterial activity against vancomycin-resistant Enterococcus faecalis isolate L560 by broth microdilution method; type: functional
[7] = test system: Enterococcus faecium; assay: Antibacterial activity against vancomycin-sensitive Enterococcus faecium isolate L568 by broth microdilution method; type: functional
[8] = test system: Enterococcus faecium; assay: Antibacterial activity against vancomycin-resistant Enterococcus faecium isolate L569 by broth microdilution method; type: functional
[9] = cells; settings: Homo sapiens, HMEC-1, 72 h
Description: Cytotoxicity against human HMEC1 cells after 72 hrs by MTT assay

[10] = test system: Streptococcus pneumoniae; assay: Antibacterial activity against penicillin-sensitive Streptococcus pneumoniae isolate L44 by broth microdilution method
[11] = test system: Staphylococcus aureus; assay: Antibacterial activity against glycopeptide-intermediate Staphylococcus aureus isolate L3798 by broth microdilution method; type: functional
[12] = test system: Staphylococcus aureus; assay: Antibacterial activity against glycopeptide-intermediate,methicillin-resistant Staphylococcus aureus isolate L3797 by broth microdilution method; type: functional
[13] = test system: Staphylococcus haemolyticus; assay: Antibacterial activity against methicillin-resistant Staphylococcus haemolyticus isolate L1729 by broth microdilution method; type: functional
[14] = test system: Staphylococcus haemolyticus; assay: Antibacterial activity against methicillin-sensitive Staphylococcus haemolyticus isolate L1730 by broth microdilution method; type: functional
[15] = test system: Streptococcus pneumoniae; assay: Antibacterial activity against Streptococcus pneumoniae BAA1402 expressing MefE efflux pump by broth microdilution method; type: functional
[16] = test system: Staphylococcus aureus; assay: Antibacterial activity against methicillin-sensitive Staphylococcus aureus ATCC 6538P by broth microdilution method; type: functional
[17] = test system: Staphylococcus aureus; assay: Antibacterial activity against methicillin-sensitive Staphylococcus aureus ATCC 25923 by broth microdilution method; type: functional
[18] = test system: Candida albicans; assay: Antifungal activity against Candida albicans; type: functional, organism-based

| Compound | IC50 [1] [µM] | MIC [2] [µg/mL] | MIC [3] [µg/mL] | MIC [4] [µg/mL] | MIC [5] [µg/mL] | MIC [6] [µg/mL] | MIC [7] [µg/mL] | MIC [8] [µg/mL] | IC50 [9] [µM] | MIC [10] [µg/mL] | MIC [11] [µg/mL] | MIC [12] [µg/mL] | MIC [13] [µg/mL] | MIC [14] [µg/mL] | MIC [15] [µg/mL] | MIC [16] [µg/mL] | MIC [17] [µg/mL] | Activity [18] |
| --- | --- | --- | --- | --- | --- | --- | --- | --- | --- | --- | --- | --- | --- | --- | --- | --- | --- | --- |
| CC[C@H]1C[C@@]23OC(=O)C(=C2O)C(=O)[C@]2(CC)[C@@H](C=C[C@@H]4[C@@H](O[C@H]5C[C@@H](O)[C@H](NC(=O)c6[nH]ccc6Br)[C@@H](C)O5)[C@@H](C)CC[C@@H]42)CCCC/C=C/[C@@]3(C)C=C1C(=O)O | 143 | 2 (≈ 2.34 µM) | 4 (≈ 4.68 µM) | 4 (≈ 4.68 µM) | 16 (≈ 18.7 µM) | 16 (≈ 18.7 µM) | 64 (≈ 75 µM) | 64 (≈ 75 µM) | 43 | 8 (≈ 9.37 µM) | – | – | – | – | – | – | – | – |
| CN[C@H](CC(C)C)C(=O)N[C@H]1C(=O)N[C@@H](CC(N)=O)C(=O)N[C@H]2C(=O)N[C@H]3C(=O)N[C@H](C(=O)N[C@H](C(=O)O)c4cc(O)cc(O)c4-c4cc3ccc4O)[C@H](O)c3ccc(c(Cl)c3)Oc3cc2cc(c3O[C@@H]2O[C@H](CO)[C@@H](O)[C@H](O)[C@H]2O[C@H]2C[C@](C)(N)[C@H](O)[C@H](C)O2)Oc2ccc(cc2Cl)[C@H]1O [VANCOMYCIN] | – | – | – | 1 (≈ 0.69 µM) | 1 (≈ 0.69 µM) | > 128 | – | > 128 | – | 0.5 (≈ 0.345 µM) | 8 (≈ 5.52 µM) | > 128 | 2 (≈ 1.38 µM) | 1 (≈ 0.69 µM) | 4 (≈ 2.76 µM) | – | – | – |
| CC[C@H]1C[C@@]23OC(=O)C(=C2O)C(=O)[C@]2(CC)[C@@H](C=C[C@@H]4[C@@H](O[C@H]5C[C@@H](O)[C@H](NC(=O)c6[nH]cc(Br)c6Br)[C@@H](C)O5)[C@@H](C)CC[C@@H]42)CCCC/C=C/[C@@]3(C)C=C1C(=O)O | 109 | 8 (≈ 8.58 µM) | 16 (≈ 17.2 µM) | 1 (≈ 1.07 µM) | 32 (≈ 34.3 µM) | 16 (≈ 17.2 µM) | 32 (≈ 34.3 µM) | 32 (≈ 34.3 µM) | 3 | 8 (≈ 8.58 µM) | – | – | – | – | – | – | – | – |
| CC[C@H]1C[C@@]23OC(=O)C(=C2O)C(=O)[C@]2(CC)[C@@H](C=C[C@@H]4[C@@H](O[C@H]5C[C@@H](O)[C@H](NC(=O)c6[nH]c(Cl)c(Cl)c6Cl)[C@@H](C)O5)[C@@H](C)CC[C@@H]42)CCCC/C=C/[C@@]3(C)C=C1C(=O)O | 47 | 2 (≈ 2.28 µM) | 4 (≈ 4.55 µM) | 8 (≈ 9.11 µM) | 2 (≈ 2.28 µM) | 2 (≈ 2.28 µM) | 16 (≈ 18.2 µM) | 8 (≈ 9.11 µM) | 2 | 8 (≈ 9.11 µM) | 4 (≈ 4.55 µM) | 4 (≈ 4.55 µM) | 4 (≈ 4.55 µM) | 4 (≈ 4.55 µM) | > 128 | 2 (≈ 2.28 µM) | 2 (≈ 2.28 µM) | – |
| COc1cccc2c1C(=O)c1c(O)c3c(c(O)c1C2=O)C[C@@](O)(C(=O)CO)C[C@@H]3O[C@H]1C[C@H](N)[C@H](O)[C@H](C)O1 [DOXORUBICIN] | 4.6 | – | – | – | – | – | – | – | 0.06 | – | – | – | – | – | – | – | – | – |
| CC[C@H]1C[C@@]23OC(=O)C(=C2O)C(=O)[C@]2(CC)[C@@H](C=C[C@@H]4[C@@H](O[C@H]5C[C@@H](O)[C@H](NC(=O)c6[nH]c(Cl)cc6Cl)[C@@H](C)O5)[C@@H](C)CC[C@@H]42)CCCC/C=C/[C@@]3(C)C=C1C(=O)O | 50 | 0.25 (≈ 0.296 µM) | 1 (≈ 1.19 µM) | 2 (≈ 2.37 µM) | 0.5 (≈ 0.593 µM) | 0.5 (≈ 0.593 µM) | 8 (≈ 9.48 µM) | 4 (≈ 4.74 µM) | 9 | 4 (≈ 4.74 µM) | 1 (≈ 1.19 µM) | 0.5 (≈ 0.593 µM) | 1 (≈ 1.19 µM) | 1 (≈ 1.19 µM) | 64 (≈ 75.8 µM) | 0.5 (≈ 0.593 µM) | 0.5 (≈ 0.593 µM) | inactive |
